In patent US10583120B2, “Composition having a muscle-relaxant and anti-inflammatory activity” (Kolinpharma S.p.A., priority 2014, dated 2020):

Columns and labels:
[1] = system: human skeletal muscle myotubes; assay: Evaluation of the muscle-relaxant effect (Test 2), contractile activity of myotubes stimulated with carbacol; format: cell-based; details: myotubes with carbacol 3 mM, FIG. 5A; at least partly restored during washing
Protocol: The myoblasts were differentiated into myotubes in differentiation medium (DMEM: F12, with the addition of 2% of horse serum). The differentiated myotubes were used for the experiments from the fourth to the seventh day of maintenance in differentiation medium.
For the evaluation of the muscle-relaxant effect of MILESAX, human myoblasts were seeded onto microscope slides and, once they had reached at least about 70% confluence, they were maintained in differentiation medium for 4-7 days before being used for the experiments. The contractile activity of the myotubes was recorded with a TCS SP5 confocal microscope (Leica Microsystems) in transmitted-light mode with the 40× objective lens (HCX PL APO, 1.25 NA, Leica Microsystems) using the incubator associated with the microscope to maintain the cells under a controlled atmosphere (37° C., 5% CO2). […]
Not all the myotubes in the culture were capable of contracting, and similarly it was never possible to observe spontaneous contractions only in differentiation medium. […] The contractile activity of the identified active cell(s) was recorded with a confocal microscope in transmitted light, with an image acquired every 151 ms. […]

[2] = system: TNFα release from differentiated THP-1 monocytes; assay: ELISA test (Test 1), release of TNFα into culture medium; format: cell-based, human; details: positive control at 100 μM, LPS 1 μg/ml for 2 hours
THP-1 cells = details: positive controls at 100 μM
Text: The absorbance measured correlates directly with the number of live cells.

[3] = system: IL-1β release from differentiated THP-1 monocytes; assay: ELISA test (Test 1), release of IL-1β into culture medium; format: cell-based, human; details: positive control at 100 μM, LPS 1 μg/ml for 2 hours

Row | SMILES | frequency of contractions per unit time (contractions per minute) [1] | release of TNFα relative to vehicle/control [2] | toxic effect on the cells (MTT test) (THP-1 cells) | release of IL-1β [3]
1 | COc1c(O[C@@H]2O[C@H](CO)[C@@H](O)[C@H](O)[C@H]2O)cc2c(c1OC)-c1ccc(SC)c(=O)cc1[C@@H](NC(C)=O)CC2 [Muscoril, thiocolchicoside] | clear tendency | – | – | –
2 | O=C(O)Cc1ccccc1Nc1c(Cl)cccc1Cl [diclofenac] | – | significantly reduced the release of TNFα | no toxic effect on the cells | effective in reducing the release of IL-1β
3 | CC(C)Cc1ccc(C(C)C(=O)O)cc1 (stereo not drawn) [ibuprofen] | – | did not lead to any reduction in the release of TNFα | – | no effect on the release of IL-1β
